Experimental data as given in patent US9944721B2, “Polysialic acid and use for treatment of neurodegenerative and neuroinflammatory diseases” (RHEINISCHE FRIEDRICH-WILHELMS UNIVERSITÄT BONN, priority 2013, dated 2018).

What was measured:
human microglial cells = test: Phagocytosis associated oxidative burst: neural debris triggered superoxide release (DHE); format: cell-based
Method: To measure the relative production of superoxide by the microglial cells, human microglial cells were plated in 4-chamber culture dishes. After 24 hours cells were treated with 5 mg/ml neural debris for 15 minutes with or without 1 hour PSA-20 pre-incubation at concentrations of 0.15 μM, 0.5 μM or 1.5 μM. Then, cells were washed 2-times with Krebs-HEPES-buffer. To detect the release of superoxide the cells were afterwards incubated for 15 minutes with 30 μM superoxide-sensitive fluorescent dye dihydroethidium (DHE) solution diluted in Krebs-HEPES-buffer. Finally cells were washed 2-times with Krebs-HEPES-buffer and fixed for 15 minutes with 0.25% glutaraldehyde and 4% PFA. In total, six images were randomly collected per experimental group by confocal laser scanning microscopy (Fluoview 1000, Olympus). All cells of the collected images were analyzed by Image J software (NIH).
To confirm the effect, Trolox as scavenger of superoxide and superoxide dismutase-1 (SOD1) as modifier of superoxide were used in a control experiment as described above using 1.5 μM of PSA-20 but adding either 40 μM Trolox or 20 μg/ml (SOD1) into the medium. […] As can be taken from the FIG. 9C, the radical scavenger Trolox and the superoxide dismutase SOD1 neutralized the neural debris triggered superoxide release and as controls confirmed that DHE detected an extracellular production of superoxide.

human microglia = test: Microglial phagocytosis of fluorescently labeled neural debris; format: cell-based; conditions: 1 hour pre-incubation, untreated 32%+/−0.02
Method: The human microglia were challenged with fluorescently labeled neural debris and the uptake of the debris into the cells was determined by confocal microscopy and 3D-reconstruction.
To receive debris, neural stem cells were incubated with 40 nM okadaic acid (Sigma) for 24 hours. Then, cellular debris was collected and centrifuged. Debris was washed with PBS and stained with “Dil Derivatives for Long-Term Cellular Labeling” Molecular Probes (Invitrogen) according to the supplier's manual. Microglial cells were pre-incubated for 1 hour with concentration of 0.15 μM, 0.5 μM or 1.5 μM PSA-20 followed by 1 hour of incubation with 5 μg/ml prestained neural debris. Cells were fixed and incubated with an anti-iba1 antibody (Wako, Japan) followed by a secondary Alexa488-conjugated antibody (Molecular probes). For analysis images were randomly scanned and 3D-reconstructions were obtained by a confocal laser scanning microscope (Fluoview 1000, Olympus). To determine the ratio of cells having ingested fluorescently labeled material, six images per experiment group were obtained and all cells on the images were quantified using Image J software (NIH).

[1] = test system: humanized Siglec-11 transgenic mice; test: Experimental autoimmune encephalomyelitis (animal model of multiple sclerosis); format: in vivo
Method: Experimental autoimmune encephalomyelitis was induced in humanized Siglec-11 transgenic mice (humanized Siglec-11 mouse) and littermate control mice (normal control mice). Therefore, adult 6-8 weeks-old female humanized Siglec-11 transgenic mice (Wang et al. 2009, dissertation, University Bonn, uniform resource name: urn:nbn:de:hbz:5N-18095) and littermate control mice were immunized with 100 μg of myelin oligodendrocyte glycoprotein MOG (amino acids 35-55; Seqlab) in […] Freunds adjuvant (both DIFCO; BD GmbH, Heidelberg, Germany). Pertussis toxin (200 ng; List Biological Laboratories, Epsom, UK) was injected on days 0 and 2 of immunization. Clinical signs were scored as following: 0, no clinical signs; 1, complete limp tail; 2, complete limp tail and weakness of hindlimbs; 3, paraparesis of at least one hindlimb; 4, complete hindlimb paraparesis and weakness of forelimbs; and 5, fore- and hindlimb paralysis or moribund. Only mice having disease onset (clinical score of >=1) until day 20 were used for experiments.
Low molecular weight PSA-20 (1 μg per g body weight) was applied intraperitoneally into the mice on the day of disease onset (clinical score at least 1) and daily on the following three consecutive days. […] The cumulative disease score from the first day of treatment until day 25 was determined.

[2] = test system: humanized Siglec-11 transgenic mice or littermate control mice; test: Laser-induced animal model of macular degeneration, intravitreal injection; format: in vivo
Source text: An animal model of macular degeneration was induced by laser technology. Experimental damage of the mouse retina using a laser is a well-accepted animal model for age-related macular degeneration. Laser coagulation and direct damage of Bruch's membrane rapidly lead to microglia and complement activation and induce vascular leakage. Fluorescence angiography is an established method to detect vascular leakage in the retina.
Humanized Siglec-11 transgenic mice (Wang Y, 2009, dissertation, University Bonn, uniform resource name: urn:nbn:de:hbz:5N-18095) or littermate control mice were used in this experiment.
Three argon laser coagulation spots were induced (125 mW, 100 ms, […], Viridis, Quantel Medical, France) in the retina of the mice. Directly afterwards the mice were injected intra-vitreally with PSA-20 (3 μg/per eye) or a PBS vehicle control.
Retinal tissue was analyzed 48 hours after the laser lesion by immunohistochemistry. Therefore, whole mount immunostaining was performed with a polyclonal rabbit-anti-ionized calcium-binding adapter molecule 1 (Iba1) antibody followed by fluorescein (FITC)-conjugated secondary antibody directed against rabbit immunoglobulin (IgG). Confocal images of the inner plexiform layer from the retina were collected and the percentage of the activated amoeboid microglia in relation to the total Iba1-positive microglia was determined in and outside the laser lesion of the PSA-20 treated Siglec-11 and the control mice.
To determine the inflammation mediated vascular leakage, fluorescein angiography was performed 48 hours after laser coagulation lesion of the retina. In detail, anesthetized animals were injected intraperitoneally with 0.1 ml 2.5% fluorescein in 0.9% sterile NaCl. Late stage angiography pictures were taken eleven minutes after fluorescein injection on a Spectralis HRA2 retina angiograph (Heidelberg Engineering) to visualize vessel leakage. Angiography pictures were exported from Heidelberg Eye Explorer Software as jpeg files. Pixel intensities of 6 regions of interest (roi) per picture were quantified with ImageJ and background fluorescence was subtracted.
At 48 hours before angiography, three argon laser coagulation spots were induced (125 mW, 100 ms, 100 μm, Viridis, Quantel Medical, France) in the retina of the Siglec-11 transgenic or littermate control mice. Mice were injected intra-vitreally with PSA-20 (3 μg/per eye) or a PBS vehicle control. […] Statistically significant groups were determined by One-Way ANOVA and Student's t-test. […]
Again, the laser damage of retinas was induced in the humanized Siglec-11 transgenic mice or littermate controls as described above. […] Single data points indicate individual eyes analyzed. Data were analyzed by ordinary one-way ANOVA followed by Tukey's multiple comparisons test. […]

Substance: poly-(α(2→8)Neu5Ac)n [PSA-20]
- superoxide release triggered by neural debris (human microglial cells; 0.5 μM and 1.5 μM): inhibited
- relative superoxide production, debris-induced (human microglial cells; 1.5 μM, 1 hour pre-incubation, debris alone 1.5+/−0.08, FIG. 9C): 0.9+/−0.05
- percentage of microglia having ingested neural debris (human microglia; 0.5 μM): 25%+/−0.02
- percentage of microglia having ingested neural debris (human microglia; 1.5 μM): 22%+/−0.01
- clinical signs (clinical score) ([1]; Siglec-11 transgenic mice, 1 μg per g body weight i.p. from disease onset, 4 days, from day 14 onwards, FIG. 8A): improved clinical signs
- cumulative disease score ([1]; first day of treatment until day 25, FIG. 8B): improved the clinical signs of disease
- Microglial activation (activated amoeboid microglia to total Iba1-positive microglia) ([2]; Siglec-11 transgenic mice, 3 μg/per eye intravitreal, 48 hours after laser lesion, FIG. 7D): significantly reduced
- vascular leakage (fluorescein angiography) ([2]; Siglec-11 transgenic mice, 3 μg/per eye intravitreal, 48 hours after laser, FIG. 7E): significantly reduced vascular leakage
- microglial Iba1 immunoreactivity ([2]; normal mice, 3 μg/per eye intravitreal, 48 hours after laser lesion): No effect
- vascular leakage (fluorescein angiography) ([2]; repeat, at least 8 retinas per group, Siglec-11 transgenic mice, 48 hours, vehicle 117.8+/−7.8, FIG. 7G): 84.07+/−8.2
